Laboratory results as given in paper PMC10073126, “Levosimendan inhibits disulfide tau oligomerization and ameliorates tau pathology in Tau^P301L-BiFC mice” (Experimental & Molecular Medicine, 2023).

Columns and labels:
[1] = test system: Tau-BiFC cells; assay: Flow cytometry analysis of tau-BiFC cells; format: cell-based, human; settings: for P1: intact cell population out of total cells: 24 h; for Median BiFC fluorescence intensity of BiFC-responding cells: BiFC^ON control […] ± 62, basal 332 ± 110
Protocol: After 24 h, BiFC cells were collected and subjected to flow cytometry analysis using a BD FACSLyric^TM cytometer (BD Biosciences). A total of 50,000 events were acquired per sample. All samples were gated using the same gating tree and gate positions: side scatter area (SSC-A) vs. forward scatter area (FSC-A) for viable and singlet cell populations. BiFC fluorescence was excited by a 488 nm wave laser and collected through a 527/32 bandpass filter.

[2] = biological target: T1, tauK18 (Homo sapiens, UniProt P10636); assay: In vitro tau aggregation assay (thioflavin S); format: biochemical; settings: 5 days; for EC50: tauK18 with heparin and DTT, read-out: EC50, inhibition of tau aggregation (ThS)
T1 construct: under in vitro conditions using a purified tauK18 fragment; 6xHis; made in house; host or cells: E. coli BL21 (DE3)
Protocol: (§1) To evaluate the inhibitory effect of drugs on tau aggregation, tauK18 protein (0.5 mg/mL) was incubated with each drug at various concentrations in the presence of DTT (100 μM) and heparin (0.1 mg/mL) at 37 °C for 5 days with vigorous shaking (220 rpm). For the tau disaggregation assay, the preformed aggregation mixture of tauK18 was incubated with each drug at 37 °C for 4 days with vigorous shaking (220 rpm). On the final day of incubation, the level of β-sheet aggregates was evaluated by thioflavin S (ThS) assay. For the ThS assay, 5 μL of each mixture was transferred to a black 384-well plate with 45 μL of PBS containing 10 μM ThS. ThS fluorescence (λex = 430 nm, and λem = 500 nm) was measured by using a Flexstation2 spectrophotometer (Molecular Devices).

[3] = biological target: T1, tauK18; assay: In vitro tau disaggregation assay (thioflavin S); format: biochemical; settings: preformed tauK18 aggregates, 4 days; read-out: EC50, tau disaggregation (ThS)
Protocol: as §1

[4] = test system: Tau^P301L-BiFC mice; assay: Y-maze test; format: in vivo, mouse; settings: 5 mg/kg i.p., three times a week, 4 months; vehicle TG 52.8 ± 2.6%
Protocol: (§2) For drug administration, LMTM and levosimendan were dissolved in PBS containing 40% polyethylene glycol (PEG; Sigma). Nine-month-old Tau^P301L-BiFC mice were intraperitoneally administered each drug for 4 months, three times a week, at a dosage of 5 mg/kg (n = 11 per group). Vehicle-treated Tau^P301L-BiFC mice and age-matched wild-type mice were used as control groups. Behavioral assessments were conducted as described below for one month from the end of drug administration. All mice were sacrificed at the age of 14 months for pathological analysis.
Mice (n = 11 per group) were tested for spontaneous alternation behavior in a Y-shaped maze (60 cm in length of each arm, 20 cm in depth) using a standard protocol. Spontaneous alternation for 8 min was calculated as the proportion of alternations. Alteration (%) was defined as consecutive entries in three different arms (ABCs) divided by the number of possible alterations (total arm entries minus 2)[43].

[5] = test system: Tau^P301L-BiFC mice; assay: Passive avoidance test; format: in vivo, mouse; settings: 5 mg/kg i.p., three times a week, 4 months; compared with vehicle-treated TG
Protocol: as §2
The passive avoidance test was performed as described previously[44] with the following modifications. Mice (n = 8 per group) were adapted in the passive avoidance chamber (Gemini) for 10 min and then returned to their home cages. The chamber is composed of a light compartment and a dark compartment separated by a connecting gate. The following day, the mice were placed in the light compartment, and the gate was opened after 30 s. When mice entered the dark compartment, the gate was closed, and an electrical foot shock (3 mA) was delivered for 2 s. The mice were left in the dark compartment for 30 s after the foot shock so that they associated the environment with the aversive stimulus. The mice were then returned to their home cages. […] The step-through latency, the time required for mice to enter the dark compartment, was measured up to 540 s.

[6] = test system: Tau^P301L-BiFC mice; assay: AT8 immunofluorescence of brain tissue slices; format: in vivo, mouse; settings: 5 mg/kg i.p., 4 months
Protocol: as §2
For immunofluorescence image analysis, brain tissue slices (n = 6–8 per group) were stained with AT8 (pS202/T205) antibody (1:200, Invitrogen). The primary antibody was detected using Alexa Flour 633-conjugated anti-mouse antibody (1:500, Abcam). Fluorescence images (λex = 620–640 nm and λem = 650–700 nm) were acquired using Axio Scan. Z1 (ZEISS).

[7] = biological target: T2, tau (Homo sapiens, UniProt P10636); assay: Tau immunoblot of tau-BiFC cell lysates (reducing and nonreducing SDS-PAGE); settings: tauK18^P301L-activated tau-BiFC cells; for Level of disulfide-linked tau oligomers compared to basal: nonreducing SDS-PAGE, control 2.4 ± 0.4-fold
Protocol: For reducing SDS‒PAGE analysis, cell or brain lysates were mixed with 4x Laemmli buffer containing 10% β-mercaptoethanol (BME) and boiled at 97 °C for 5 min. For nonreducing SDS‒PAGE analysis, cell or brain lysates were mixed with 4x Laemmli buffer without BME. For immunoblot analysis, 10 μg of each lysate was separated on a 10% SDS–PAGE gel and transferred to a PVDF membrane. The levels of total tau and phosphorylated tau were detected by anti-tau antibodies against 2B11 (IBL), Tau5 (Abcam), pSer199 (Abcam), pSer396 (Abcam), and pThr205 (Abcam). […] Band intensity was quantified using ImageJ software (NIH). All data were normalized to β-actin.

[8] = biological target: T2, tau; assay: Tau-BiFC response in tau-BiFC cells (high-content imaging); format: cell-based; set-up: expressed in transfected cells; host or cells: HEK293 Tau-BiFC cells (G418-selected); settings: 48 h of treatment
[9] = test system: tau cysteines; assay: Covalent binding to tau (14C autoradiography, MALDI-TOF of R1-R4 peptides); settings: repeat domain:levosimendan 1:10, RT
Protocol: TauK18 (1 mg/mL, 72 μM) was incubated with ^14C-levosimendan (720 μM) in PBS containing 5% DMSO at RT for 2 h. Then, the mixture was separated on a 15% SDS–PAGE gel under nonreducing conditions and stained with Coomassie blue. For autoradiography, the SDS–PAGE gel was transferred to a PVDF membrane and scanned by Typhoon FLA 7000 IP (GE Healthcare).
Each repeat domain (R1, R2, R3, R4, R2-C291S or R3-C322S, 150 μM) was incubated with levosimendan (molar ratio 1:10 of a tau repeat domain: levosimendan) at RT for 37 h. The samples were mixed with matrix solution (10 mg mL^−1 sinapinic acid in 0.1% (v/v) trifluoroacetic acid/CAN) at a ratio of 1:1. The mixtures were directly spotted onto the MALDI target and dried. Mass spectra were acquired in reflection/linear positive ion mode in the m/z range of 2000–100,000 using an Ultraflex III TOF/TOF mass spectrometer controlled by Flex Control 3.0 (Bruker Daltonics). The default operating conditions were as follows: ion source 1, 25.0 kV; ion source 2, 23.0 kV; lens voltage, 6.0 kV; laser repetition rate = 100 Hz. All spectra were generated automatically in the instrument software and based on averaging 1000 shots from 10 nonoverlapping positions (100 shots/position).

[10] = Tau-BiFC^ON by forskolin (30 μM)
[11] = Tau-BiFC^ON by tauK18^P301L (5 μg/mL)

T2 sequence (P10636 1-441 isoform P10636-8): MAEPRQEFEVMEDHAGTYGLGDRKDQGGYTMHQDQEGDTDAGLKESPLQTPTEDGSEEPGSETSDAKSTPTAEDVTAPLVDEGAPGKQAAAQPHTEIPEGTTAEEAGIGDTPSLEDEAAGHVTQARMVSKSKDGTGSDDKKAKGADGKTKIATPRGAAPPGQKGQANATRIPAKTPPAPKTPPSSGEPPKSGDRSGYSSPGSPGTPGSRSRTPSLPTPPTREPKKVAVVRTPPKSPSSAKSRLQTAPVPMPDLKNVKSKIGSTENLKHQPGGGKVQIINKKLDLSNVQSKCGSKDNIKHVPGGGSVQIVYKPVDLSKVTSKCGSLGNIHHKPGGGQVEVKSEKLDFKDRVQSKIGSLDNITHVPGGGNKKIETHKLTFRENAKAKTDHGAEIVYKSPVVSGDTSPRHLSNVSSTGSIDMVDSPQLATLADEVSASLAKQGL
T2 sequence (P10636 1-441 isoform P10636-8): as above
T1 sequence (P10636 561-685 limits assumed): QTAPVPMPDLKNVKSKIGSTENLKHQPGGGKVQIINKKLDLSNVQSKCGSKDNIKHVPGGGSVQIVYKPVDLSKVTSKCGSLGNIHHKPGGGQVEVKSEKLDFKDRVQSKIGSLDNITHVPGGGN

Structure (SMILES) | EC50 [2] [nM] | EC50 [3] [nM] | Percent alternation [4] [%] | Latency of entering the dark compartment [5] | AT8 immunoreactivity in the cortex compared to vehicle-treated group [6] [fold] | AT8 immunoreactivity in the hippocampus compared to vehicle-treated group [6] [fold] | EC50 [8, 10] [nM] | EC50 [8, 11] [nM] | other results
CN(C)c1ccc2c(c1)Sc1cc(N(C)C)ccc1N2.CS(=O)(=O)O.CS(=O)(=O)O [LMTM, leucomethylene blue mesylate] | 1900 ± 200 | 3400 ± 200 | 68.9 ± 3.5 | did not show significant improvement | 0.6 ± 0.2 | 0.5 ± 0.2 | 2200 ± 200 | 2700 ± 200 | P1: intact cell population out of total cells ([1]; drug 5 μM with tauK18^P301L): 14.5%; Median BiFC fluorescence intensity of BiFC-responding cells ([1]; drug 5 μM with tauK18^P301L): 596 ± 57; Level of disulfide-linked tau oligomers compared to basal ([7]; 5 μM): 1.9 ± 0.4 fold; Level of pS199-positive monomers compared to basal ([7]; 5 μM, reducing gel): 0.3 ± 0.0 fold; Level of pS199-positive oligomers compared to basal ([7]; 5 μM, reducing gel): 0.4 ± 0.1 fold; Level of pT205-positive monomers compared to basal ([7]; 5 μM, reducing gel): 0.2 ± 0.2 fold; Level of pT205-positive oligomers compared to basal ([7]; 5 μM, reducing gel): 0.6 ± 0.2 fold
C[C@@H]1CC(=O)NN=C1c1ccc(NN=C(C#N)C#N)cc1 [Levosimendan] | 2600 ± 100 | 3700 ± 200 | 70.4 ± 4.2 | delayed latency or not entering the chamber | 0.4 ± 0.1 | 0.4 ± 0.2 | 1900 ± 100 | 2200 ± 100 | P1: intact cell population out of total cells ([1]; drug 15 μM with tauK18^P301L): 69.0%; Median BiFC fluorescence intensity of BiFC-responding cells ([1]; drug 15 μM with tauK18^P301L): 249 ± 59; Inhibition of tau aggregation in vitro (ThS response) ([2]; heparin-induced): strong anti-tau aggregation activity; Covalent attachment to tau repeat domains (MALDI-mass spectrometry) [9]: covalently attached to the R2 and R3 domains; Level of disulfide-linked tau oligomers compared to basal ([7]; 45 μM): 0.8 ± 0.2 fold; Level of tau phosphorylation at T205 compared to basal ([7]; 45 μM, control 1.9 ± 0.2-fold): 1.0 ± 0.1 fold; Total tau level compared to basal ([7]; control 2.0 ± 0.1-fold): 1.0 ± 0.2 fold
